Measurements as given in PMC12434668 (Journal of Medicinal Chemistry, 2025).
≈ marks a conversion by molar mass, not a printed value. Where “and” joins values, the source holds several entries; their conditions need not be identical. Identical values can stand only once. Like-named read-outs stand apart in the source and are kept apart here.

What was measured:
[1] = tested on: caspase 3/7 in H929 cells; test: Caspase 3/7 induction assay (Caspase-Glo), H929; type: cell-based; settings: compound treatment for 3 h; for EC50: Homo sapiens, NCI-H929
Method: (§1) Cells were treated with a 10-point compound titration and incubated at 37 °C for 3 h.

[2] = tested on: K562 cells; test: In vitro proliferation counterscreen, Mcl-1 insensitive K562; type: cell-based; settings: Homo sapiens; Mcl-1 insensitive K562; top concentration tested 12.5 µM
Method: NCI-H929, A427, and K562 cell lines were obtained from ATCC.
(§2) Suspension cells were plated immediately before compound addition. Adherent cell lines were incubated overnight at 37 °C in a tissue culture incubator prior to compound addition. Compounds were added in triplicates using an HP D300e Digital Dispenser (Hewlett-Packard) or manually at the concentrations indicated and total volumes were normalized using DMSO backfill, with final DMSO concentration of 0.5%. Control wells were treated with DMSO only. Following incubation for 72 or 96 h, a Cell Titer-Glo assay was conducted following the manufacturer recommendations (Promega, G9243) and luminescence was measured using a Victor X5 (PerkinElmer) or a Cytation 3 (Biotek) plate reader. % Viability was defined as relative luminescence units (RLU) of each well divided by the RLU of cells on day 0.

[3] = molecular target: T1, Mcl-1 (Homo sapiens, UniProt Q07820); test: TR-FRET binding assay (FITC-Bak peptide competition)
T1 construct: Briefly, a previously reported construct was subcloned into an expression vector (pDEST-HisMBP); MBP (from vector pDEST-HisMBP); made in house; host or cells: Escherichia coli BL21 CodonPlus (DE3) RIL
Source text: Protein preparation was described previously. Briefly, a previously reported construct was subcloned into an expression vector (pDEST-HisMBP) expressed in Escherichia coli BL21 CodonPlus (DE3) RIL (Stratagene) and purified through nickel-column and size-exclusion chromatography sequentially.
Mixtures containing vehicle without compound served as a negative control, while mixtures containing no protein served as a positive control. […] Two or more repeats were obtained and average K i values are reported.

[4] = tested on: caspase 3/7 in A427 cells; test: Caspase 3/7 induction assay (Caspase-Glo), A427; type: cell-based; settings: compound treatment for 3 h; for EC50: Homo sapiens, A-427
Method: as §1

[5] = tested on: A427 cells; test: In vitro proliferation assay (CellTiter-Glo), A427; type: cell-based; settings: Homo sapiens, A-427; A427 cell line; average of at least n = 2, triplicate
Method: (§3) NCI-H929, A427, and K562 cell lines were obtained from ATCC. NCI-H929 cells were cultured in RPMI1640 (ATCC-formulated, Catalog No. 30-2001) + 10% fetal calf serum (FCS, GIBCO BRL, Cat. No. 26140) + 0.05 mM mercaptoethanol. A-427 cells were cultured in RPMI1640 (ATCC-formulated, Catalog No. 30-2001) + 10% fetal calf serum (FCS, GIBCO BRL, Cat. No. 26140). K562 cell lines were cultured in Iscove’s Modified Dulbecco Medium (Gibco-formulated, purchased from Thermo-Fisher, Cat. No. 12440-053) + 10% fetal bovine serum (FBS, Sigma-Aldrich, F2442). All cell lines were cultured at 37 °C with 5% CO2 in a humidified incubator and have been regularly tested negatively for mycoplasm contamination.
as §2, with “Cells were seeded at 750–1500 cells per well (depending on growth kinetics) in 384-well plates (Corning, Catalog No. 3707) or at 3000 cells per well in 96-well plates in the respective growth medium and allowed to settle overnight. Suspension cells” for “Suspension cells”, “day 0. Four parameter sigmoidal dose–response curves were generated and IC50 values were determined using XLFit (IDBS) software (eq 205) or in-house software. Drug combination experiments were performed in 96-well or 384-well format and drug synergy was determined using the BLISS model (PMID: 26171228).” for “day 0.”

[6] = tested on: caspase 3/7 in K562 cells; test: Caspase 3/7 induction assay (Caspase-Glo), K562; type: cell-based; settings: compound treatment for 3 h; for EC50: Homo sapiens, K562
Method: as §1

[7] = tested on: NCI-H929 cells; test: In vitro proliferation assay (CellTiter-Glo), H929; type: cell-based; settings: Homo sapiens, H929 cell line, average of at least n = 2, triplicate
Method: as §3
as §2, with “Cells were seeded at 750–1500 cells per well (depending on growth kinetics) in 384-well plates (Corning, Catalog No. 3707) or at 3000 cells per well in 96-well plates in the respective growth medium and allowed to settle overnight. Suspension cells” for “Suspension cells”, “day 0. Four parameter sigmoidal dose–response curves were generated and IC50 values were determined using XLFit (IDBS) software (eq 205) or in-house software. Drug combination experiments were performed in 96-well or 384-well format and drug synergy was determined using the BLISS model (PMID: 26171228).” for “day 0.”

[8] = Mouse pharmacokinetic analyses (i.v. and oral); type: in vivo; settings: plasma; for AUC: dose not printed at this place
Method: For PK analysis, mice were administered intravenously or orally with compound formulated in 10% ethanol and 10% Cremophor EL. Compound 13 dosing was also screened with 20% Phosphal IPG, 20% Phosphal MCT, 10% HP-β-CD, and 40% HP-β-CD. Plasma samples were obtained at predefined time points and compound concentrations in plasma were measured by quantitative HPLC–MS/MS using an internal standard. Calibration and quality control samples were prepared using blank plasma from untreated animals. Samples were precipitated with acetonitrile and injected into a HPLC system (Agilent 1200). Separation was performed by gradients of 5 mmol/L ammonium acetate pH 5.0 and acetonitrile with 0.1% formic acid on a Luna C8 reversed-phase column with 2.5 μm particles (Phenomenex). The HPLC was interfaced by ESI operated in positive ionization mode to a triple quadrupole mass spectrometer (6500+ Triple Quad System, SCIEX) operated in multiple reaction monitoring mode. Chromatograms were analyzed with Analyst (SCIEX) and pharmacokinetic parameters were calculated by noncompartmental analysis using proprietary software.

[9] = Kinetic aqueous solubility; type: physicochemical; settings: aqueous medium, pH 6.8
[10] = in the presence of 1% fetal bovine serum, average of at least n = 2, read-out: TRFRET, Mcl-1 Ki
[11] = supplementary CSV, unit inferred, read-out: Ki TRFRET
[12] = iv, dosed at 20 mg/kg, read-out: i.v. mouse CL
[13] = iv, supplementary CSV, unit not given (Table 1: 20 mg/kg, 14 and 16 at 10 mg/kg), read-out: CL
[14] = iv, dosed at 10 mg/kg, read-out: i.v. mouse CL

T1 sequence (Q07820 whole entry): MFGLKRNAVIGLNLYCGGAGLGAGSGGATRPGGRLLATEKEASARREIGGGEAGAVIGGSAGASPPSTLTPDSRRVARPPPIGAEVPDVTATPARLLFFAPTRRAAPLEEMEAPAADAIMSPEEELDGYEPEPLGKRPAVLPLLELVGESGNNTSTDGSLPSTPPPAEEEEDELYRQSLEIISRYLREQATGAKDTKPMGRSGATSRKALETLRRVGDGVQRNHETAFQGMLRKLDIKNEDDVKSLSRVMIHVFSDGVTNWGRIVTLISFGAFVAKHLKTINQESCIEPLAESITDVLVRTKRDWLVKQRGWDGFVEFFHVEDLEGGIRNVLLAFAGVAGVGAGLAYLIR

SMILES	EC50 [1] [nM]	H929 Caspase 3/7 maximum activity, fold over vehicle (FoV) [1]	GI50 [2] [nM]	Ki [3, 10] [nM]	Ki [3, 11] [nM]	EC50 [4] [nM]	A427 Caspase 3/7 fold over vehicle (FoV) [4] [fold]	GI50 [5] [nM]	EC50 [6] [nM]	K562 Caspase 3/7 fold over vehicle (FoV) [6] [fold]	GI50 [7] [nM]	clearance [8, 12] [mL/min/kg]	clearance [8, 13] [mL/min/kg]	AUC ([8]; iv, read-out: AUCIV) [µM·h]	AUC ([8]; oral, read-out: AUCPO) [µM·h]	bioavailability ([8]; po, read-out: oral bioavailability (F)) [%]	clearance [8, 14] [mL/min/kg]	solubility kinetic [9] [µg/mL]
COCCOc1cc2c3c(cc(C(=O)O)n3CCCOCc3nn(C)cc3-c3c(Cl)ccc4c(CCCOc5cc(C)c(Cl)c(C)c5)c5n(c34)[C@H](C)CN2C5=O)c1OC [Compound 19, (2^63^4 S a ,1^72^2 R a ,2^4 R)-2^7-Chloro-2^10-(3-(4-chloro-3,5-dimethylphenoxy)propyl)-1^4-methoxy-1^5-(2-methoxyethoxy)-2^4,3^1-dimethyl-2^1-oxo-2^1,2^2,2^3,2^4-tetrahydro-1^1 H,3^1 H-5-oxa-2(2,6)-pyrazino[1,2-a]indola-1(7,1)-indola-3(4,3)-pyrazolacyclooctaphane-1^2-carboxylic Acid]	11	16 fold	> 11200	< 0.08	< 0.02	13	14	18 ± 6	> 3120	1.4	10 ± 3	19.8	19.8	–	–	–	–	–
COc1cc2c3c(cc(C(=O)N(C)C)n3CCCOCc3nn(C)cc3-c3c(Cl)ccc4c(CCCOc5cc(C)c(Cl)c(C)c5)c5n(c34)[C@H](C)CN2C5=O)c1OC [Compound 25, (2^63^4 S a ,1^72^2 R a ,2^4 R)-2^7-chloro-2^10-(3-(4-chloro-3,5-dimethylphenoxy)propyl)-1^4,1^5-dimethoxy-N,N,2^4,3^1-tetramethyl-2^1-oxo-2^1,2^2,2^3,2^4-tetrahydro-1^1 H,3^1 H-5-oxa-2(2,6)-pyrazino[1,2-a]indola-1(7,1)-indola-3(4,3)-pyrazolacyclooctaphane-1^2-carboxamide]	17	16 fold	> 12500	< 0.08	0.077	24	14	105 ± 24	> 3120	1.4	39 ± 7	6.4	6.4	136	14	22	–	–
COc1cc2c3c(cc(C(=O)O)n3CCCOCc3ncccc3-c3c(Cl)ccc4c(CCCOc5cc(C)c(Cl)c(C)c5)c5n(c34)[C@H](C)CN2C5=O)c1OC [Compound 21, (2^63^4 S a ,1^72^2 R a ,2^4 R)-2^7-Chloro-2^10-(3-(4-chloro-3,5-dimethylphenoxy)propyl)-1^4,1^5-dimethoxy-2^4-methyl-2^1-oxo-2^1,2^2,2^3,2^4-tetrahydro-1^1 H-5-oxa-2(2,6)-pyrazino[1,2-a]indola-1(7,1)-indola-3(3,2)-pyridinacyclooctaphane-1^2-carboxylic Acid]	12	16 fold	> 12500	< 0.08	< 0.02	17	14	39 ± 7	> 3120	1.4	17 ± 8	8	8	–	–	–	–	–
COc1ccc2c3c1cc(C(=O)O)n3CCCOCc1nn(C)cc1-c1c(Cl)ccc3c(CCCOc4cc(C)c(Cl)c(C)c4)c4n(c13)[C@H](C)CN2C4=O [Compound 16, (2^63^4 S a ,1^72^2 R a ,2^4 R)-2^7-Chloro-2^10-(3-(4-chloro-3,5-dimethylphenoxy)propyl)-1^4-methoxy-2^4,3^1-dimethyl-2^1-oxo-2^1,2^2,2^3,2^4-tetrahydro-1^1 H,3^1 H-5-oxa-2(2,6)-pyrazino[1,2-a]indola-1(7,1)-indola-3(4,3)-pyrazolacyclooctaphane-1^2-carboxylic Acid]	16	16 fold and 16 (16) fold	> 12500	< 0.08	–	24	15	45 ± 17	> 3120	1.3	27 ± 3	–	17.3	–	–	–	17.3	–
Cc1cc2c3c(c1)cc(C(=O)O)n3CCCOCc1nn(C)cc1-c1c(Cl)ccc3c(CCCOc4cc(C)c(Cl)c(C)c4)c4n(c13)[C@H](C)CN2C4=O [Compound 14, (2^63^4 S a ,1^72^2 R a ,2^4 R)-2^7-Chloro-2^10-(3-(4-chloro-3,5-dimethylphenoxy)propyl)-1^5,2^4,3^1-trimethyl-2^1-oxo-2^1,2^2,2^3,2^4-tetrahydro-1^1 H,3^1 H-5-oxa-2(2,6)-pyrazino[1,2-a]indola-1(7,1)-indola-3(4,3)-pyrazolacyclooctaphane-1^2-carboxylic Acid]	45	17 fold	> 10200	< 0.08	0.03	35	16	195 ± 14	> 3120	1.3	64 ± 17	–	8.4	–	–	–	8.4	–
COc1cc2c3c(cc(C(=O)O)n3CCCOCc3ccncc3-c3c(Cl)ccc4c(CCCOc5cc(C)c(Cl)c(C)c5)c5n(c34)[C@H](C)CN2C5=O)c1OC [Compound 22, (2^63^4 S a ,1^72^2 R a ,2^4 R)-2^7-Chloro-2^10-(3-(4-chloro-3,5-dimethylphenoxy)propyl)-1^4,1^5-dimethoxy-2^4-methyl-2^1-oxo-2^1,2^2,23,24-tetrahydro-11H-5-oxa-2(2,6)-pyrazino[1,2-a]indola-1(7,1)-indola-3(3,4)-pyridinacyclooctaphane-1^2-carboxylic Acid]	–	–	> 12500	0.08 ± 0.01	–	–	–	58 ± 4	–	–	29 ± 6	3.5	3.5	–	–	–	–	11 (≈ 13.8 µM)
